Laboratory results reported in patent US20090075976A1, “Association between an anti-atherothrombotic and an angiotensin-converting enzyme inhibitor” (LES LABORATOIRES SERVIER, priority 2007, published 2009).
Counter-ions that a name gives are not always drawn.

Tests used:
aortic VCAM-1 = assay: Expression of aortic VCAM-1 in diabetic ApoE−/− mice (real-time PCR); format: in vivo; details: 13 weeks
Method: Four groups of 9 mice deficient in apolipoprotein E (ApoE^−/−, spontaneously developing atheroma plaques in their aortas) were used in this study. At the age of 8 weeks, the mice are made diabetic by 5 intraperitoneal injections of 70 mg/kg of streptozotocin over 5 days. At the ninth week, the animals are divided into four groups: an untreated control group, a group treated with terutroban (compound A) sodium salt (1 mg/kg/day in the food), a group treated with perindopril (compound B) tert-butylamine salt (0.1 mg/kg/day in the drinking water), and a group treated with the association of terutroban (compound A) sodium salt (1 mg/kg/day in the food) and perindopril (compound B) tert-butylamine salt (0.1 mg/kg/day in the drinking water). For the expression of aortic VCAM-1, the mice are treated for 13 weeks and then sacrificed. The aortas and the right-side kidneys are removed, dissected and frozen in liquid nitrogen. The tissues are cryo-ground and total RNA is extracted using the RNeasy® micro kit (Qiagen). […] Expression of aortic VCAM-1 and expression of renal fibronectin are quantified by real-time PCR and normalised with respect to 3 reference genes: β-actin, hypoxanthine-guanine phosphoribosyl transferase (HPRT) and glyceraldehyde phosphate dehydrogenase (GAPDH). […]

[1] = test system: human E-selectin promoter; assay: E-selectin promoter activity (luciferase reporter) in TNF-α-induced HUVEC cells; format: cell-based; details: for Activity in cpm %/Control MEAN ± SDM: TNF-α-induced (100 U/ml); for effect on expression of the E-selectin gene: compound alone, at the concentrations tested (up to 100 μM), TNF-α
Method: The study is carried out on human endothelial cells HUVEC (Human Umbilical Vein Endothelial Cells, Clonetics Co). The cells are cultured in an EBM2 medium (Endothelial Basal Medium, Clonetics Co) supplemented with 2% FCS (Fœtal Calf Serum) and EGM2 (Endothelial Growth Medium, Clonetics Co).
An 850 bp fragment, corresponding to the human E-selectin promoter, extending from the nucleotides at positions −800 to +50 (accession no. M64485; Tamaru et al., E-selectin gene expression is induced synergistically with the coexistence of activated classic protein kinase C and signals elicited by interleukin-1β but not tumor necrosis factor-α; 1999, J. Biol. Chem, 274, 3753-3763), was amplified by PCR and sub-cloned. In a final reaction volume of 100 μl, 5 units of native Pyrococcus furiosus (Pfu) DNA polymerase (Stratagene) were placed in the presence of 1 μg of human genomic DNA (Clontech), 200 μM of dNTP (deoxynucleotide triphosphate) (Clontech) and 200 ng of primers in a medium containing the buffer specific to the enzyme. The set of primers used is as follows: […]
The PGL3/E-selectin plasmid is transfected into HUVEC cells before the fourth passage. Transfection is carried out in plates having cells at 50% confluence, depositing Lipofectin® (Invitrogen) and 3 μg of PGL3/E-selectin plasmid in each of the wells. The Lipofectin® (6 μg/ml) is previously activated for 30 minutes in an OPTI-MEM medium (GIBCO™) and then brought into contact for 15 minutes with the plasmids previously diluted with the medium. The cells are incubated for 4 hours at 37° C. in an atmosphere containing 5% CO2 and […]. The transfection medium is withdrawn and replaced overnight by an enriched culture medium in order to stabilise the cells.
Expression of the reporter genes is induced over 4 hours in an M199 medium without serum (GIBCO™). The cells are scratched and lysed in a lysis buffer (Dual-Luciferase® kit, Promega) and then held at −20° C.
The induction phase is 4 hours for the HUVEC cells in the presence of 100 U/ml of Tumour Necrosis Factor-α (TNF-α). During that induction phase, there are added different concentrations of, on the one hand: • perindoprilate (0 to 100 µM), terutroban sodium salt (0 to 100 μM), or terutroban sodium salt (30 μM)+different concentrations of perindoprilate (10, 30 and 100 μM) (Table 1) and, on the other hand: • ramiprilate (0 to 100 μM), terutroban sodium salt (0 to 100 μM), or terutroban sodium salt (10 μM)+different concentrations of ramiprilate (30 and 100 μM) (Table 2).
The E-selectin promoter activity is determined by quantification of the luciferase activity produced (Dual-Luciferase® kit, Promega). A solution of luciferin, the substrate of the firefly luciferase, is added to each well. […] The plate is incubated for 10 minutes in the dark because the luciferase activity is light-sensitive, and then a luminometer reading is started in order to quantify the photons emitted (Wallac, Perkin Elmer), the result obtained being the average cpm (counts per minute) over a period of 5 seconds.
(§1) The activity of the E-selectin promoter is measured under control conditions and in the presence of products in the induced state.
as §1

renal fibronectin = assay: Expression of renal fibronectin in diabetic ApoE−/− mice (real-time PCR); format: in vivo; details: 6 weeks
Method: Four groups of 9 mice deficient in apolipoprotein E (ApoE^−/−, spontaneously developing atheroma plaques in their aortas) were used in this study. At the age of 8 weeks, the mice are made diabetic by 5 intraperitoneal injections of 70 mg/kg of streptozotocin over 5 days. At the ninth week, the animals are divided into four groups: an untreated control group, a group treated with terutroban (compound A) sodium salt (1 mg/kg/day in the food), a group treated with perindopril (compound B) tert-butylamine salt (0.1 mg/kg/day in the drinking water), and a group treated with the association of terutroban (compound A) sodium salt (1 mg/kg/day in the food) and perindopril (compound B) tert-butylamine salt (0.1 mg/kg/day in the drinking water). For the expression of renal fibronectin, the mice are treated for 6 weeks and then sacrificed after anaesthesia using isoflurane. For the expression of aortic VCAM-1, the mice are treated for 13 weeks and then sacrificed. The aortas and the right-side kidneys are removed, dissected and frozen in liquid nitrogen. […] Expression of aortic VCAM-1 and expression of renal fibronectin are quantified by real-time PCR and normalised with respect to 3 reference genes: β-actin, hypoxanthine-guanine phosphoribosyl transferase (HPRT) and glyceraldehyde phosphate dehydrogenase (GAPDH). […]

VCAM-1 = details: diabetic atheromatous Apo E−/− mice; cited from earlier work
CD rats [2] = assay: Arterial thrombosis in the rat (FeCl3-induced, aorta); format: in vivo
Method: The thrombosis technique used is that of Tanaka and co-workers (Eur. J. Pharmacol., 2008; 401, 413-18). CD rats (350-375 g) are anaesthetised using pentobarbital 50 mg/kg IP and are placed on a thermostatically controlled blanket. After laparotomy, the aorta is exposed. […] Some animals are treated with terutroban (compound A) in the form of the sodium salt at a dose of 0.1 mg/kg, others with perindopril (compound B) in the form of the tert-butylamine salt at a dose of 1 mg/kg, and others with terutroban in the form of the sodium salt (compound A) at a dose of 0.1 mg/kg and perindopril (compound B) in the form of the tert-butylamine salt at 1 mg/kg.

CD rats [3] = assay: Arterial pressure in the anaesthetised rat; format: in vivo; details: recorded 1 hour after treatment, controls 131±7 mmHg
Method: After anaesthesia using pentobarbital (50 mg/kg IP), the animal is placed on a thermostatically controlled blanket. The carotid artery is exposed and a catheter is introduced in order to monitor the arterial pressure with the aid of a Gould sensor connected to AcqKnowledge software. […] Some animals are treated with terutroban (compound A) in the form of the sodium salt at a dose of 0.1 mg/kg, others with perindopril (compound B) in the form of the tert-butylamine salt at a dose of 0.3 mg/kg, and others with terutroban (compound A) in the form of the sodium salt at 0.1 mg/kg and perindopril (compound B) in the form of the tert-butylamine salt at 0.3 mg/kg.

[4] = 0.1 mg/kg/day in the drinking water

Structure (SMILES)	residual expression of the aortic VCAM-1 gene versus 100% without treatment (aortic VCAM-1; 1 mg/kg/day in the food) [%]	Activity in cpm %/Control MEAN ± SDM ([1]; compound alone 10 μM) [%]	Activity in cpm %/Control MEAN ± SDM ([1]; compound alone 30 μM) [%]	Activity in cpm %/Control MEAN ± SDM ([1]; compound alone 100 μM) [%]	effect on expression of the E-selectin gene [1]	expression of the renal fibronectin gene versus 100% without treatment (renal fibronectin; 1 mg/kg/day in the food) [%]	endothelial expression of the adhesion molecule VCAM-1 (VCAM-1)	weight of clot (CD rats [2]; 0.1 mg/kg, controls 17.1±1.3 mg) [mg]	arterial pressure (CD rats [3]; 0.1 mg/kg) [mmHg]	residual expression of the aortic VCAM-1 gene versus 100% without treatment (aortic VCAM-1; [4]) [%]	expression of the renal fibronectin gene versus 100% without treatment (renal fibronectin; [4]) [%]	weight of clot (CD rats [2]; 1 mg/kg, controls 15.6±0.7 mg) [mg]	arterial pressure (CD rats [3]; 0.3 mg/kg) [mmHg]
Cc1ccc2c(c1CCC(=O)O)CC[C@@H](NS(=O)(=O)c1ccc(Cl)cc1)C2 [Compound A, sodium salt, 3-[(6R)-6-[[(4-chlorophenyl)sulphonyl]amino]-2-methyl-5,6,7,8-tetrahydronaphth-1-yl]propanoic acid]	88±22	105.8 ± 7.9	99.5 ± 9.1	88.8 ± 8.9	no effect	69±16	significantly reduced	16.8 ± 1.3	126±7	–	–	–	–
CCC[C@H](N[C@@H](C)C(=O)N1[C@H](C(=O)O)C[C@@H]2CCCC[C@@H]21)C(=O)O [Compound B, active metabolite, perindoprilate]	–	99.5 ± 7.8	100.3 ± 9.2	82.8 ± 11.5	no effect	–	–	–	–	–	–	–	–
C[C@H](N[C@@H](CCc1ccccc1)C(=O)O)C(=O)N1[C@H](C(=O)O)C[C@@H]2CCC[C@@H]21 [Compound C, active metabolite, ramiprilate]	–	–	111.1 ± 17.2	114.6 ± 38.9	no effect	–	–	–	–	–	–	–	–
CCC[C@H](N[C@@H](C)C(=O)N1[C@H](C(=O)O)C[C@@H]2CCCC[C@@H]21)C(=O)OCC [perindopril]	–	–	–	–	–	–	–	–	–	76±21	86±9.9	15.2 ± 1.1	120±9
